The text below walks through data of patent US4775685A, “2,4-diphenyl-1,3-dioxanes” (Imperial Chemical Industries PLC, priority 1985, dated 1988).

In general, pA2 refers to a measure of antagonist potency on a negative log scale. Lower therefore signals a weaker antagonist.

Assay [1] concerns the target T1, TXA2 (Oryctolagus cuniculus, UniProt Q6WQI8).
T1 construct: agonist TXA2 (from rabbit platelet-rich plasma) or U46619
T1 sequence (Q6WQI8 1-233): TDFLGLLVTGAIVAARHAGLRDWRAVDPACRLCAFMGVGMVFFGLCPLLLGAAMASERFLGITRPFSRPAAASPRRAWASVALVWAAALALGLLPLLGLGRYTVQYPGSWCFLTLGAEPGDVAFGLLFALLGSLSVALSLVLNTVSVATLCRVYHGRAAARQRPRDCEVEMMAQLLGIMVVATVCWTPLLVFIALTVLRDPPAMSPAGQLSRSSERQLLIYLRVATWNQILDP
Briefly: Test (a): rabbit aortal strip model, TXA2 antagonism. The conditions noted are these: (+0.05) for (i)-(iii). How it is done:
As stated earlier, the compounds of formula I are antagonists of one or more of the actions of TXA2, for example certain of its actions on blood platelets, the vasculature and/or the lung.
(a) The rabbit aortal strip model devised by Piper and Vane (Nature, 1969, 223, 29-35) using as agonist a freshly prepared sample of TXA2, generated by addition of arachidonic acid (25 μg) to citrated, platelet rich rabbit plasma (250 μl ) and allowing the mixture to aggregate fully over 90 seconds before use; alternatively the TXA2 mimetic agent known as U46619 (described by R. L. Jones et alia in "Chemistry, Biochemistry and Pharmacological Activity of Prostanoids" edited by S. M. Roberts and F. Scheinmann, at page 211; Pergamon Press, 1979) may be used as the agonist; and […]

Assay [2] concerns the target T2, U46619 stimulated platelet aggregation (Homo sapiens, UniProt P21731).
T2 construct: aggregating human, citrated, platelet-rich plasma by addition of the TXA2 mimetic agent U46619; endogenous in cells; host or cells: human platelets in citrated platelet-rich plasma
T2 sequence (P21731 1-343): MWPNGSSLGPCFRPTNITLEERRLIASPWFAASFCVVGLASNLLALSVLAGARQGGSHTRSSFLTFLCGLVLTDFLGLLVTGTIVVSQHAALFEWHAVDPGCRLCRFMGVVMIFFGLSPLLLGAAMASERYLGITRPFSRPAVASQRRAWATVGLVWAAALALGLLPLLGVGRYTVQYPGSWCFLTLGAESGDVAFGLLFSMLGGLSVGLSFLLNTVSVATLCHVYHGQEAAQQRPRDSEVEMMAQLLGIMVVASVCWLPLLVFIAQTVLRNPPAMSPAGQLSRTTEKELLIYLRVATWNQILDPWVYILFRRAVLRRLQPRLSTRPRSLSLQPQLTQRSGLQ
Briefly: Test (b): blood platelet aggregation test (U46619, human citrated platelet-rich plasma). Type of assay: cell-based. From the text: (b) a blood platelet aggregation test based on that described by Born (Nature, 1962, 194, 927-929) and involving:
(i) aggregating human, citrated, platelet-rich plasma by addition of the TXA2 mimetic agent U46619 so that a dose-response curve is generated;
(iii) calculating a KB value indicating potency of TXA2 antagonism for the test compound, averaged over several concentrations, from the calculated 50% response value for U46619 aggregation in the presence and absence of test compound; and […]

`O=C(O)CCC/C=C\C[C@@H]1CO[C@H](c2ccccc2Cl)O[C@@H]1c1ccccc1` (relative stereo) [(iv), 5(Z)-7-([2,4,5-cis]-2-o-chlorophenyl-4-phenyl-1,3-dioxan-5-yl)heptenoic acid, reference compound]: the pA2 in assay [1] worked out at 6.22. Same read-out and setting: the figure for `N#Cc1ccc([C@H]2OC[C@@H](C/C=C\CCCC(=O)O)[C@@H](c3ccccc3)O2)cc1` (relative stereo) [(v), 5(Z)-7([2,4,5-cis]-2-p-cyanophenyl-4-phenyl-1,3-dioxan-5-yl)heptenoic acid, reference compound] is 5.65; for `O=C(O)CC/C=C\C[C@@H]1CO[C@H](c2ccccc2Cl)O[C@@H]1c1ccccc1O` (relative stereo) [compound (i), 4(Z)-6-([2,4,5-cis]-2-o-chlorophenyl-4-o-hydroxyphenyl-1,3-dioxan-5-yl)hexenoic acid] it is 8.02. `N#Cc1ccccc1[C@H]1OC[C@@H](C/C=C\CCC(=O)O)[C@@H](c2ccccc2O)O1` (relative stereo) [compound (ii), 4(Z)-6-([2,4,5-cis]-2-o-cyanophenyl-4-o-hydroxyphenyl-1,3-dioxan-5-yl)hexenoic acid] yielded a Kb in assay [2] of 0.834 nM. Besides, the pA2 in assay [1] came to 8.09. The matching figures for `N#Cc1ccc([C@H]2OC[C@@H](C/C=C\CCC(=O)O)[C@@H](c3ccccc3O)O2)cc1` (relative stereo) [compound (iii)]: 5.49 nM and 7.45.
